Test results reported in patent publication US10821100B2, “Triazolone compounds as mPGES-1 inhibitors” (Glenmark Pharmaceuticals S.A., priority 2012, dated 2020).

Target: T1, Recombinant human mPGES-1 (Homo sapiens, UniProt O14684)
T1 construct: made in house; host or cells: CHO cells (crude microsomal fractions)
T1 sequence (O14684 1-152): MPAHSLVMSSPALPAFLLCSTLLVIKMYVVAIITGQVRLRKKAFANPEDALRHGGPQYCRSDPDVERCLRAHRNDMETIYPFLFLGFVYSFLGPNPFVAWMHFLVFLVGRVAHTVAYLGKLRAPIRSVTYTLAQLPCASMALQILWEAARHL
Test: In-vitro screening of mPGES-1 inhibitors (inhibition of PGE2 formation from PGH2, HTRF detection)
Type: biochemical
Conditions: mPGES-1 enzyme; for inhibition at 1 µM: 1 μM test compound, read-out: Percentage inhibition at 1 μM; for inhibition at 1 µM / inhibition at 10 µM: crude microsomal fractions; for inhibition at 10 µM: 10 μM test compound, read-out: Percentage inhibition at 10 μM; for IC50: class symbols
Text: In-Vitro Protocol for Screening of mPGES-1 Inhibitors: mPGES-1 (Microsomal prostaglandin E synthase-1) is a microsomal enzyme that converts endoperoxide substrate PGH2 (prostaglandin H2) to product PGE2 (prostaglandin E2) by isomerization in the presence of reduced glutathione (GSH). mPGES-1 inhibitors were screened by assessing their ability to inhibit formation of PGE2 from PGH2 in the presence of mPGES-1 using an anti-PGE2 antibody based detection method. Recombinant human mPGES-1 was generated in-house by expression in CHO cells (Ouellet M et al. (2002), Protein Expression and Purification 26: 489-495). The assay was set up using crude microsomal fractions at a protein concentration of 40-60 μg/mL. Test compounds were prepared in 100% dimethyl sulfoxide (DMSO) to obtain 20 mM stock solution and then diluted using assay buffer comprising 0.1 M Potassium phosphate buffer with 2 mM EDTA. The final concentration of DMSO in the reaction was 0.5% (v/v). Negative controls were comprised of all assay reagents except the enzyme. Positive controls were comprised of the enzyme reaction in the absence of any inhibitor. Test compounds were incubated for 10 minutes in assay buffer containing 2.5 mM GSH and mPGES-1 enzyme followed by addition of PGH2 at a concentration of 15 μM for 1 minute. The reaction was stopped by addition of Stannous chloride (11 mg/ml) and PGE2 levels were measured ([…] et al. (2005), Journal of Biomolecular Screening 10(6) 599-605; Goedken R E et al. (2008), Journal of Biomolecular Screening 13 (7): 619-625) by HTRF kit (CisBio)). Inhibition of mPGES-1 enzyme activity was measured using the percent of reaction occurring in the positive control. Concentration response curves were plotted using percent inhibition of maximum enzyme reaction. The IC50 value was calculated from the concentration response curve by nonlinear regression analysis using GraphPad PRISM software.

COc1cc(-n2nc(-c3c(F)cccc3Cl)[nH]c2=O)ccc1C(=O)NCc1ccccc1C(F)(F)F [Example-25, 4-[3-(2-Chloro-6-fluorophenyl)-5-oxo-4,5-dihydro-1H-1,2,4-triazol-1-yl]-2-methoxy-N-[2-(trifluoromethyl)benzyl]benzamide]
inhibition at 1 µM: 74.4% | inhibition at 10 µM: 88.9% | IC50: > 100 nM

COc1cc(-n2nc(-c3c(F)cccc3Cl)[nH]c2=O)ccc1C(=O)NC1(c2ccccc2C(F)(F)F)CC1 [Example-26, 4-(3-(2-Chloro-6-fluorophenyl)-5-oxo-4,5-dihydro-1H-1,2,4-triazol-1-yl)-2-methoxy-N-(1-(2-(trifluoromethyl)phenyl)cyclopropyl)benzamide]
inhibition at 1 µM: 80.6% | inhibition at 10 µM: 88.1% | IC50: > 100 nM

COc1cc(-n2nc(-c3c(F)cccc3Cl)[nH]c2=O)ccc1C(=O)NC1(c2ccc(C(F)(F)F)cc2)CC1 [Example-27, 4-(3-(2-Chloro-6-fluorophenyl)-5-oxo-4,5-dihydro-1H-1,2,4-triazol-1-yl)-2-methoxy-N-(1-(4-(trifluoromethyl)phenyl)cyclopropyl)benzamide]
inhibition at 1 µM: 72.8% | inhibition at 10 µM: 97.5%

O=C(NCc1ccc(F)cc1C(F)(F)F)c1ccc(-n2nc(-c3c(F)cccc3Cl)[nH]c2=O)cc1 [Example-28, 4-(3-(2-Chloro-6-fluorophenyl)-5-oxo-4,5-dihydro-1H-1,2,4-triazol-1-yl)-N-(4-fluoro-2-(trifluoromethyl)benzyl)benzamide]
inhibition at 1 µM: 72.2% | inhibition at 10 µM: 95.5%

O=C(Nc1ccc(C(F)(F)F)cc1)c1ccc(-n2nc(-c3c(F)cccc3Cl)[nH]c2=O)cc1 [Example-29, 4-(3-(2-Chloro-6-fluorophenyl)-5-oxo-4,5-dihydro-1H-1,2,4-triazol-1-yl)-N-(4-(trifluoromethyl)phenyl)benzamide]
inhibition at 1 µM: 79.2% | inhibition at 10 µM: 85.8% | IC50: > 100 nM

O=c1[nH]c(-c2c(F)cccc2Cl)nn1-c1ccc(-c2nc(-c3ccc(F)cc3)no2)cc1 [Example-30, 3-(2-Chloro-6-fluorophenyl)-1-(4-(3-(4-fluorophenyl)-1,2,4-oxadiazol-5-yl)phenyl)-1H-1,2,4-triazol-5(4H)-one]
inhibition at 1 µM: 89.6% | inhibition at 10 µM: 94.5% | IC50: < 50 nM

O=C(Nc1cccc(C(F)(F)F)c1)c1ccc(-n2nc(-c3c(F)cccc3Cl)[nH]c2=O)cc1 [Example-31, 4-(3-(2-Chloro-6-fluorophenyl)-5-oxo-4,5-dihydro-1H-1,2,4-triazol-1-yl)-N-(3-(trifluoromethyl)phenyl)benzamide]
inhibition at 1 µM: 96.9% | inhibition at 10 µM: 98.6% | IC50: 50 to 100 nM

O=C(Nc1ccc(F)c(C(F)(F)F)c1)c1ccc(-n2nc(-c3c(F)cccc3Cl)[nH]c2=O)cc1 [Example-32, 4-(3-(2-Chloro-6-fluorophenyl)-5-oxo-4,5-dihydro-1H-1,2,4-triazol-1-yl)-N-(4-fluoro-3-(trifluoromethyl)phenyl)benzamide]
inhibition at 1 µM: 88.8% | inhibition at 10 µM: 94% | IC50: 50 to 100 nM

COc1cc(-n2nc(-c3c(F)cccc3Cl)[nH]c2=O)ccc1C(=O)Nc1ccc(F)c(C(F)(F)F)c1 [Example-33, 4-(3-(2-Chloro-6-fluorophenyl)-5-oxo-4,5-dihydro-1H-1,2,4-triazol-1-yl)-N-(4-fluoro-3-(trifluoromethyl)phenyl)-2-methoxybenzamide]
inhibition at 1 µM: 89.4% | inhibition at 10 µM: 96.8% | IC50: < 50 nM

O=C(Nc1cc(C(F)(F)F)ccc1F)c1ccc(-n2nc(-c3c(F)cccc3Cl)[nH]c2=O)cc1 [Example-34, 4-(3-(2-Chloro-6-fluorophenyl)-5-oxo-4,5-dihydro-1H-1,2,4-triazol-1-yl)-N-(2-fluoro-5-(trifluoromethyl)phenyl)benzamide]
inhibition at 1 µM: 70.7% | inhibition at 10 µM: 92.3%

Cc1ccc(NC(=O)c2ccc(-n3nc(-c4c(F)cccc4Cl)[nH]c3=O)cc2)c(F)c1 [Example-35, 4-(3-(2-Chloro-6-fluorophenyl)-5-oxo-4,5-dihydro-1H-1,2,4-triazol-1-yl)-N-(2-fluoro-4-methylphenyl)benzamide]
inhibition at 1 µM: 37.4% | inhibition at 10 µM: 59.1%

COc1cc(-n2nc(-c3c(F)cccc3Cl)[nH]c2=O)ccc1C(=O)Nc1cc(C(F)(F)F)ccc1F [Example-36, 4-(3-(2-Chloro-6-fluorophenyl)-5-oxo-4,5-dihydro-1H-1,2,4-triazol-1-yl)-N-(2-fluoro-5-(trifluoromethyl)phenyl)-2-methoxybenzamide]
inhibition at 1 µM: 97.3% | inhibition at 10 µM: 98.9% | IC50: < 50 nM

Cc1ccc(Cl)cc1NC(=O)c1ccc(-n2nc(-c3c(F)cccc3Cl)[nH]c2=O)cc1 [Example-37, N-(5-Chloro-2-methylphenyl)-4-(3-(2-chloro-6-fluorophenyl)-5-oxo-4,5-dihydro-1H-1,2,4-triazol-1-yl)benzamide]
inhibition at 1 µM: 51% | inhibition at 10 µM: 94.3%

COc1cc(-n2nc(-c3c(F)cccc3Cl)[nH]c2=O)ccc1C(=O)Nc1cc(Cl)ccc1C [Example-38, N-(5-Chloro-2-methylphenyl)-4-(3-(2-chloro-6-fluorophenyl)-5-oxo-4,5-dihydro-1H-1,2,4-triazol-1-yl)-2-methoxybenzamide]
inhibition at 1 µM: 87.4% | inhibition at 10 µM: 84.9% | IC50: 50 to 100 nM

COc1cc(-n2nc(-c3c(F)cccc3Cl)[nH]c2=O)ccc1C(=O)Nc1ccc(C)cc1F [Example-39, 4-(3-(2-Chloro-6-fluorophenyl)-5-oxo-4,5-dihydro-1H-1,2,4-triazol-1-yl)-N-(2-fluoro-4-methylphenyl)-2-methoxybenzamide]
inhibition at 1 µM: 90.1% | inhibition at 10 µM: 96.4% | IC50: 50 to 100 nM

COc1cc(-n2nc(-c3c(F)cccc3Cl)[nH]c2=O)ccc1-c1nc(-c2ccc(Cl)cc2)no1 [Example-40, 3-(2-Chloro-6-fluorophenyl)-1-(4-(3-(4-chlorophenyl)-1,2,4-oxadiazol-5-yl)-3-methoxyphenyl)-1H-1,2,4-triazol-5(4H)-one]
inhibition at 1 µM: 89% | inhibition at 10 µM: 90.7% | IC50: < 50 nM

COc1cc(OC)cc(-c2noc(-c3ccc(-n4nc(-c5c(F)cccc5Cl)[nH]c4=O)cc3OC)n2)c1 [Example-41, 3-(2-Chloro-6-fluorophenyl)-1-(4-(3-(3,5-dimethoxyphenyl)-1,2,4-oxadiazol-5-yl)-3-methoxyphenyl)-1H-1,2,4-triazol-5(4H)-one]
inhibition at 1 µM: 58.8% | inhibition at 10 µM: 87.1%

COc1cc(-n2nc(-c3c(Cl)cccc3Cl)[nH]c2=O)ccc1C(=O)Nc1cccc(C(F)(F)F)c1 [Example-42, 4-(3-(2,6-Dichlorophenyl)-5-oxo-4,5-dihydro-1H-1,2,4-triazol-1-yl)-2-methoxy-N-(3-(trifluoromethyl)phenyl)benzamide]
inhibition at 1 µM: 96.5% | inhibition at 10 µM: 99.7% | IC50: < 50 nM

COc1cc(-n2nc(-c3c(Cl)cccc3Cl)[nH]c2=O)ccc1C(=O)Nc1ccc(F)c(C(F)(F)F)c1 [Example-43, 4-(3-(2,6-Dichlorophenyl)-5-oxo-4,5-dihydro-1H-1,2,4-triazol-1-yl)-N-(4-fluoro-3-(trifluoromethyl)phenyl)-2-methoxybenzamide]
inhibition at 1 µM: 98.6% | inhibition at 10 µM: 99% | IC50: < 50 nM

COc1cc(-n2nc(-c3c(Cl)cccc3Cl)[nH]c2=O)ccc1C(=O)Nc1cc(C(F)(F)F)ccc1F [Example-44, 4-(3-(2,6-Dichlorophenyl)-5-oxo-4,5-dihydro-1H-1,2,4-triazol-1-yl)-N-(2-fluoro-5-(trifluoromethyl)phenyl)-2-methoxybenzamide]
inhibition at 1 µM: 97.4% | inhibition at 10 µM: 99% | IC50: < 50 nM

COc1cc(-n2nc(-c3c(F)cccc3Cl)[nH]c2=O)ccc1C(=O)Nc1nc2ccc(F)cc2s1 [Example-45, 4-(3-(2-Chloro-6-fluorophenyl)-5-oxo-4,5-dihydro-1H-1,2,4-triazol-1-yl)-N-(6-fluorobenzo[d]thiazol-2-yl)-2-methoxybenzamide]
inhibition at 1 µM: 81.7% | inhibition at 10 µM: 90.1% | IC50: < 50 nM

COc1cc(-n2nc(-c3c(F)cccc3Cl)[nH]c2=O)ccc1C(=O)Nc1nc2ccccc2[nH]1 [Example-46, N-(1H-Benzo[d]imidazol-2-yl)-4-(3-(2-chloro-6-fluorophenyl)-5-oxo-4,5-dihydro-1H-1,2,4-triazol-1-yl)-2-methoxybenzamide]
inhibition at 1 µM: 59.8% | inhibition at 10 µM: 72.1%
